Where “and” joins values, the source holds several entries; their conditions need not be identical. Equal values may be shown once. Entries after “also recorded” stand apart in the source; their conditions may differ.
What was measured:
[1] = test system: calpain (μ-calpain and m-calpain isoforms); test: Calpain activity in PC12 cell extracts, fluorescence assay with N-succinyl-leu-tyr 7-amino-4-methylcoumarin; format: biochemical
Method: PC12 cells were grown in an RPMI solution containing 5% fetal bovine serum, 10% heat-inactivated horse serum, and 50 mg/L gentamicin. Cells were isolated by centrifulgation, and cell pellets suspended in 1 mL of extract buffer, containing 30 mM TRIS at pH 6.8, 15 mMEDTA, 5 mMEGTA, 1 mMDTT, […], 0.1 mg/mL AEBSF, 14.4 mM 2-mercaptoethanol, and 1% triton x-100. After 1 cycle of freeze-thaw, the cell extract was centrifuged at 4° C. at 14,000 g for 20 minutes. The supernatant was removed and assayed.
Calpain activity was measuring using N-succinyl-leu-tyr 7-amino-4-methylcoumarin as the specific peptide substrate. Fluorescence was measured in a 96-well microplate format (Dyrex Technologies (UK), Middlesex) with a 380 nm excitation filter and 480 nm emission filter. […]
Data consisting of relative fluorescence units (RFU) was obtained every two minutes for 1 hour. Data was analyzed based on initial rate, defined as the slope of the increase of the obtained RFU value up to a maximum length of 10 minutes. […]
Model sufficiency was evaluated based on whether the objective function converged with a tolerance factor of 1×10^−10, the overall F-value for the regression, and the magnitude and sign of the parameters obtained after convergence. […]

m-calpain = target: T1, m-calpain (Rattus norvegicus, UniProt Q07009); test: Calpain inhibition in whole PC12 cells, m-calpain activation; format: cell-based; details: calcium 1.4 mM, 10 μM ionomycin
T1 construct: endogenous in cells; host or cells: whole PC12 cells
T1 sequence (Q07009 20-700 limits assumed): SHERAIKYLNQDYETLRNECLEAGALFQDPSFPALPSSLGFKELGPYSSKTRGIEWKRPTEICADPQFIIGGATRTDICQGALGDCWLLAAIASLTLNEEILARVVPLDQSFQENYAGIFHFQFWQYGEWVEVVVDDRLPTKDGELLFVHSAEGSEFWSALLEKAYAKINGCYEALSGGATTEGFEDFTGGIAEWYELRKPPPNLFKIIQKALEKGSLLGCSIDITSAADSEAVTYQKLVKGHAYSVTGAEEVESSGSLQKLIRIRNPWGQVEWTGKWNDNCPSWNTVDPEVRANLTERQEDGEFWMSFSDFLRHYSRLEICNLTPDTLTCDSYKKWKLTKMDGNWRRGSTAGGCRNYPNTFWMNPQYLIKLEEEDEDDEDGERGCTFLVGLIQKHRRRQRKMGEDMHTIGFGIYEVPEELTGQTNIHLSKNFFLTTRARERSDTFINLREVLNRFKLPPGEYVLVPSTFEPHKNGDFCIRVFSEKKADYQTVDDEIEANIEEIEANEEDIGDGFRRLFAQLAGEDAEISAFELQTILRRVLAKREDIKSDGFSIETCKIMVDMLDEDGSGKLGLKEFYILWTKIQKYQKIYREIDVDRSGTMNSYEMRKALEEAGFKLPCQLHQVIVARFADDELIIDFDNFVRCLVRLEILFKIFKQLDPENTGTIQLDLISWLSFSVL
T1 sequence (Q64537 1-270 partner): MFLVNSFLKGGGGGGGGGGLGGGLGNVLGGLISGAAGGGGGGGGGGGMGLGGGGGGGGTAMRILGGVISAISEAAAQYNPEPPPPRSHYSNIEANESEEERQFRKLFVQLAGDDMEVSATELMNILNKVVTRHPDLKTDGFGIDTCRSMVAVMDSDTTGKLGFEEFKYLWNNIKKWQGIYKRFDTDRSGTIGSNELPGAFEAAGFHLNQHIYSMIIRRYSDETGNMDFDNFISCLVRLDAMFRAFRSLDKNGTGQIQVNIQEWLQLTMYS
Method: Whole cell enzymatic activity was measured as previously described in DePetrillo, Neurochem. 68:1863-69 (1997). The same four inhibitor concentrations were tested, but the substrate concentration was held at 80 μM.

[2] = test system: hippocampal primary neurons
Method: Hippocampal primary neuron cell cultures were prepared according to the methods described by Mattson, et al., Methods Cell Biol., 46:187-216 (1995). Hippocampi were obtained from rat embryos and incubated for 15 minutes in a solution of 2 mg/ml trypsin in Hank's Balanced Salt Solution (HBSS) containing 2.4 g/l N-[2-hydroxyethyl]piperazine-N′-[2-ethanesulfonic acid] (HEPES) and 10 mg/l gentamicin, pH 7.2 at a concentration of 2 hippocampi/ml. The hippocampi were then rinsed three times in 10 ml of HBSS and incubated for 5 min. in a solution of 1 mg trypsin inhibitor/ml of HBSS. Finally, the cells were rinsed three times with 10 ml of HBSS.
Cells were dissociated by trituration through the narrowed bore of a fire-polished Pasteur pipette and distributed to 35 mm polyethylenimine-coated plastic culture dishes containing 1 ml of MEM+. […]
Each of the cultures was photographed with phase-contrast inverted Zeiss microscope attached with a 35 mm camera at pre-treatment, 24 hours, and 48 hours after treatment at the same location marked by a scratched grid on the bottom of culture dish. […] Neuronal survival was quantified by counting the number of neurons on each of the photos. Neuronal viability was identified and determined by morphological criteria: viable neurons had phase-bright somas and intact processes while nonviable neurons had phase-dark, vacuolated somas, and fragmented neuritis. […]

[3] = test system: calpain-mediated spectrin breakdown; test: Spectrin breakdown in PC12 cells, western blot with anti-spectrin antibodies; format: cell-based; details: 0.1 μM, 2 mM Ca2+ fifteen minutes, 10 μM ionomycin
Excerpt: A western blot of the cell extracts was probed with anti-spectrin antibodies (commercially available from Chemicon International, Inc., of Temecula, Calif.). Undigested spectrin appeared as a band at approximately 240 kD. The spectrin breakdown products appeared at approximately 150 kD, and followed a ladder pattern associated with limited and specific proteolysis.

## CC(C)c1nc(CN(C)C(=O)NC(C(=O)N[C@@H](Cc2ccccc2)CC(O)[C@H](Cc2ccccc2)NC(=O)OCc2cncs2)C(C)C)cs1 (relative stereo) [Ritonavir, 10-hydroxy-2-methyl-5-(1-methylethyl)-1-[2-(1-methylethyl)-4-thiazolyl]-3,6-dioxo-8,11-bis(phenylmethyl)-2,4,7,12-tetraazatridecan-13-oic acid, 5-thiazolylmethyl ester, [5S-(5R*,8R* 10R* 11R*)]]
[1]; F-value 118.48, p≦0.00001
  mode of inhibition (best model fit): […]
[1]; competitive model, mean±standard error of the mean, aggregate of both calpain isoforms, read-out: inhibition constant Ki for calpain
  Ki: […]
m-calpain
  mode of inhibition: competitive inhibition
[2]; 100 pM + HNE, no difference from control group
  level of cytoprotection: 100%
[2]; rat, 24 h, 10 μM, pH 7.2
  cell death: ~100%
[3]
  inhibition of spectrin breakdown: inhibit spectrin breakdown
